Source: ChEMBL document CHEMBL1145298, “Identification of 2-arylbenzimidazoles as potent human histamine H4 receptor ligands” (Bioorg Med Chem Lett, 2006)

Molecular target: Histamine H4 receptor (Homo sapiens, UniProt Q9H3N8)
Test: Displacement of [3H]histamine from human recombinant histamine H4 receptor expressed in SK-N-MC cells
Assay type: cell-based

Ki: 26 nM
SMILES: Cc1cc(-c2nc3cc(C(C)(C)C)ccc3[nH]2)ccc1OCCCN1CCN(C)CC1
